Test results reported in patent publication US11000510B2, “Methods of using anti-CD79b immunoconjugates” (Genentech, Inc., priority 2014, dated 2021).

Key:
[1] = test system: activated B-cell-like (ABC) subtype; conditions: Br J Haematol 2013 Zhang et al.; cited from earlier work
non-ABC-DLBCL cells = conditions: Br J Haematol 2013 Zhang et al.; cited from earlier work
TMD8 (ABC-DLBCL) = test: Combination efficacy in tumor xenograft model of TMD8 (Example 5); conditions: ADC 2 mg/kg iv once; GA101 1 mg/kg ip qwx3; lenalidomide 20 mg/kg po (qdx5)x3
Description: When the xenograft tumors reached desired volume, animals were randomized and received treatments (Day 0 of the study). There were seven treatment groups (1) vehicle, (2) GA101, (3) anti-CD79b-MC-vc-PAB-MMAE, (4) lenalidomide, (5) GA101+anti-CD79b-MC-vc-PAB-MMAE, (6) GA101+lenalidomide, and (7) GA101+lenalidomide+anti-CD79b-MC-vc-PAB-MMAE. CD79b-MC-vc-PAB-MMAE ADC was dosed once intravenously at 2 mg/kg, iv, once. GA101 dosed 1 mg/kg, ip, qwx3. Lenalidomide was administered at 20 mg/kg, po, (qdx5)×3.
As described above, tumors were measured 1-2 times a week throughout the study using UltraCal-IV calipers and tumor volume was calculated using following formula: tumor volume (mm^3)=0.5a×b^2, wherein a and b are the long and short diameters of the tumor, respectively.

WSU-DLCL2 (DLBCL) = test: Combination efficacy in tumor xenograft model of WSU-DLCL2 (Example 6); format: in vivo, C.B-17 SCID mice; conditions: ADC 2 mg/kg iv once; GA101 30 mg/kg ip once; GDC-199 100 mg/kg po qdx21; GDC-032 10 mg/kg po qdx21; rituximab 30 mg/kg ip once
Description: GA101 dosed 30 mg/kg, ip, once. Bcl2 inhibitor, GDC-199, was dosed at 100 mg/kg, po, qdx21. PI3K inhibitor, GDC-032 was dosed at 10 mg/kg, po, qdx21.

[2] = test system: Granta-519 human mantle-cell lymphoma; test: Combination efficacy in tumor xenograft model of Granta-519 (Example 3); format: in vivo; conditions: ADC 1 mg/kg iv once; ABT-199 100 mg/kg orally once a day for 21 days
From the text: To appropriately analyze the repeated measurement of tumor volumes from the same animals over time, a mixed modeling approach was used (Pinheiro J, et al. nlme: linear and nonlinear mixed effects models. 2009; R package, version 3.1-96). This approach addresses both repeated measurements and modest dropout rates due to non-treatment related removal of animals before the study end. Cubic regression splines were used to fit a non-linear profile to the time courses of log2 tumor volume at each dose level. These non-linear profiles were then related to dose within the mixed model. The results were plotted as fitted tumor volume of each group over time.

Compound	growth suppression of ABC subtype [1]	effect on non-ABC-DLBCL cells (non-ABC-DLBCL cells)	anti-tumor efficacy (tumor volume, FIG. 3B) (TMD8 (ABC-DLBCL))	effect on tumor growth (tumor volume, FIG. 4) (WSU-DLCL2 (DLBCL))	anti-tumor activity (fitted tumor volume over time, FIG. 2) [2]
Nc1cccc2c1CN(C1CCC(=O)NC1=O)C2=O (racemic) [lenalidomide, (RS)-3-(4-Amino-1-oxo 1,3-dihydro-2H-isoindol-2-yl)piperidine-2,6-dione]	preferentially suppresses the growth	minimal effect	little efficacy		
GA101: anti-CD20 antibody; obinutuzumab is synonymous for GA101 or RO5072759; humanized B-Ly1 type II antibody				little effect on the tumor growth	
CC1(C)CCC(CN2CCN(c3ccc(C(=O)NS(=O)(=O)c4ccc(NCC5CCOCC5)c([N+](=O)[O-])c4)c(Oc4cnc5[nH]ccc5c4)c3)CC2)=C(c2ccc(Cl)cc2)C1 [ABT-199, 4-(4-{[2-(4-chlorophenyl)-4,4-dimethylcyclohex-1-en-1-yl]methyl}piperazin-1-yl)-N-({3-nitro-4-[(tetrahydro-2H-pyran-4-ylmethyl)amino]phenyl}sulfonyl)-2-(1H-pyrrolo[2,3-b]pyridin-5-yloxy)benzamide]				little effect on the tumor growth	did not result in anti-tumor activity
Cc1nc(-c2cn3c(n2)-c2ccc(-c4cnn(C(C)(C)C(N)=O)c4)cc2OCC3)n(C(C)C)n1 [GDC-0032]				little effect on the tumor growth	
